Assay results reported in publication PMC9745799, “Polymyxin Stereochemistry and Its Role in Antibacterial Activity and Outer Membrane Disruption” (ACS Infectious Diseases, 2022).
Positions of bridges follow the written chain, without caps; N, C: chain ends. Non-standard residues stand in square brackets, D forms with d. Residues, ends and D or L forms follow the SMILES beside them. *: point of attachment. dDab = NCC[C@@H](N)C(=O)O; Heptanoyl = CCCCCCC(=O)*

Assays:
Assay in all cases: NPN uptake assay (outer membrane disruption)
Format in all cases: cell-based
[1] = system: E. coli BW25113 (rough LPS); settings: NPN fluorescence after 1 h at RT, 5 mM HEPES pH 7.2 + 20 mM glucose, triplicates, result in words
Description: (§1) Bacteria were taken from glycerol stocks and grown in TSB overnight. Cultures were diluted either 50 or 100 times in Lysogeny Broth (LB) and grown at 37 °C to an OD600 of 0.5. Test compounds were prepared in HEPES buffer (5 mM, pH 7.2 + 20 mM glucose) and serially diluted (25 μL per well) on 1/2 the area of black 96-well plates with a transparent bottom. N-Phenyl-1-naphthylamine (NPN) was dissolved in acetone (0.5 mM) and diluted to 40 μM in HEPES buffer (5 mM, pH 7.2 + 20 mM glucose). 25 μL of the NPN solution was added to each well. The bacterial suspension was spin down (1000g, 10 min), and the remaining cell pellet was resuspended in half the original volume of HEPES buffer (5 mM, pH 7.2 + 20 mM glucose). 50 μL of bacterial suspension was added to each well. NPN fluorescence was measured after 1 h of incubation at RT with λex 355 ± 20 nm and λem 420 ± 20 nm. The measured fluorescence signal was corrected for NPN fluorescence in the absence of compounds (bacteria in buffer + NPN) and presented as relative fluorescence units (RFUs).

[2] = system: polymyxin-resistant, mcr-1 positive E. coli; settings: E. coli mcr-1 positive; NPN fluorescence after 1 h at RT, highest concentration tested 32 μg/mL, triplicates; result in words
Description: as §1

[3] = system: E. coli ATCC 25922 (smooth LPS); settings: NPN fluorescence after 1 h at RT, 5 mM HEPES pH 7.2 + 20 mM glucose, triplicates, result in words
Description: as §1

CCCCCCC(=O)N[C@H](CCN)C(=O)N[C@@H](C(=O)N[C@H](CCN)C(=O)N[C@@H]1CCNC(=O)[C@@H]([C@H](C)O)NC(=O)[C@@H](CCN)NC(=O)[C@@H](CCN)NC(=O)[C@@H](CC(C)C)NC(=O)[C@H](Cc2ccccc2)NC(=O)[C@@H](CCN)NC1=O)[C@H](C)O [ent-PmxB4] (Heptanoyl-[dDab][dT][dDab][dDab][dDab]F[dL][dDab][dDab][dT]; lactam 4-C)
OM disruption (NPN uptake) [1]: moderate OM disruption | OM disruption (NPN uptake) [2]: full NPN uptake albeit at higher concentrations | OM disruption (NPN uptake) [3]: moderate OM disruption
